Here are results for 10 compounds from patent publication EP1935986B1, “Luminogenic and fluorogenic compounds and methods to detect molecules or conditions” (priority 2005, dated 2006).

One series addresses T1, CYP4A11 (Homo sapiens, UniProt Q02928).
T1 construct: purchased Discovery Labware (BD/Gentest); host or cells: insect cell expression system (membrane fractions)
T1 sequence (Q02928 5-519): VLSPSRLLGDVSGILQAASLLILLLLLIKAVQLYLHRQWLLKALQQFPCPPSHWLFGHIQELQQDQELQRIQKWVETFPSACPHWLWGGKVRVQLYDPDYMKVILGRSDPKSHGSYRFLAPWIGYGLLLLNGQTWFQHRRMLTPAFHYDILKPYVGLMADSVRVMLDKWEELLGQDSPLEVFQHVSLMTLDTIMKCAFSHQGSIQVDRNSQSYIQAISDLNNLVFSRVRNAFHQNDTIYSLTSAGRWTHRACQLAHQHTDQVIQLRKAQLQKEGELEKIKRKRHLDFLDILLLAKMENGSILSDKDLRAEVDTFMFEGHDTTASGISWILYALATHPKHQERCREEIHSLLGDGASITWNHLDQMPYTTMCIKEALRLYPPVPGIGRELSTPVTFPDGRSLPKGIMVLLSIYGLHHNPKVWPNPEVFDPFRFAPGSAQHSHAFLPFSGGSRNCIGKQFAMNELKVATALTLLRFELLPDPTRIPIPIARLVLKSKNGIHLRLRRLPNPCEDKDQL
Put plainly: Two-step luminescent P450 screen of luciferin derivatives. Conditions: result in words. The series is classed as biochemical. The protocol: (§1) P450s are Supersomes™ purchased from Discovery Labware (BD/Gentest). […] HLM is human liver microsomes.
(§2) 1X substrate concentration: 50 µM.

The target in a further series is T2, CYP2C9 (Homo sapiens, UniProt P11712).
T2 construct: purchased Discovery Labware (BD/Gentest); host or cells: insect cell expression system (membrane fractions)
Described as above. The following applies: 50 µM substrate, 1 pmole P450, result in words. The series is classed as biochemical. The protocol:
as §1, §2

For a further series, the target named is T3, CYP1A2 (Homo sapiens, UniProt P05177).
T3 construct: purchased Discovery Labware (BD/Gentest); host or cells: insect cell expression system (membrane fractions)
T3 sequence (P05177 2-516 limits assumed): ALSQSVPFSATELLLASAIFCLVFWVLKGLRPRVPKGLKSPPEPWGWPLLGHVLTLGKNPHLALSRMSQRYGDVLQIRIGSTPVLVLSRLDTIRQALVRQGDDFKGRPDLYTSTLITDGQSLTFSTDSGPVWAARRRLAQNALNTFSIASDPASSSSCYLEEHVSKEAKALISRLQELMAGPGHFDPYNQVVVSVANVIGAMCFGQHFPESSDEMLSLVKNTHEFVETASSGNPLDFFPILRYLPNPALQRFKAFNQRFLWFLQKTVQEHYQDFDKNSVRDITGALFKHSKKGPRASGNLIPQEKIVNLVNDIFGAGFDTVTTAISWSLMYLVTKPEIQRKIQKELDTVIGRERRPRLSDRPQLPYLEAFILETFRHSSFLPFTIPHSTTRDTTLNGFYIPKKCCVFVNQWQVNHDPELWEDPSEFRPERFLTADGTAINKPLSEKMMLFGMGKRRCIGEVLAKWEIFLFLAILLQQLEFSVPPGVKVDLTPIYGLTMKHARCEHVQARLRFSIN
Described as above. Type of series: biochemical. The following applies: 50 µM substrate, 1 pmole P450, result in words. The protocol: as §1, §2

Another series addresses T4, CYP1A1 (Homo sapiens, UniProt P04798).
T4 sequence (P04798 1-512): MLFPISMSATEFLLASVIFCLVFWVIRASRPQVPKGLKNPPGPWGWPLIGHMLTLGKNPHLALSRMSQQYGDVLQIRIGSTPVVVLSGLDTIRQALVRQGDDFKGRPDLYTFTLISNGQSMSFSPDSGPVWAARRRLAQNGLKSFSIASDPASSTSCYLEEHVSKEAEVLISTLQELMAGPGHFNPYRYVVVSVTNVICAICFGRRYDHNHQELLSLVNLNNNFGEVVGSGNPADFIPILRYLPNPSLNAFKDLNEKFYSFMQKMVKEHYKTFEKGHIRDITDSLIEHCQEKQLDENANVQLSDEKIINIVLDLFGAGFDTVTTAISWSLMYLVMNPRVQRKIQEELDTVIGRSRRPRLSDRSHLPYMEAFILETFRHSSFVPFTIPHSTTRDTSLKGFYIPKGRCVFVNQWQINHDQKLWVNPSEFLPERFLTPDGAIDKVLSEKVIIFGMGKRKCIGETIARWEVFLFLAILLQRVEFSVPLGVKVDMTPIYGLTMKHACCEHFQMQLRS
Described as above. Conditions: 50 µM substrate, 1 pmole P450, 37°C 30 minutes; result in words.

Another series addresses T5, CYP2C8 (Homo sapiens, UniProt P10632).
T5 sequence (P10632 1-490): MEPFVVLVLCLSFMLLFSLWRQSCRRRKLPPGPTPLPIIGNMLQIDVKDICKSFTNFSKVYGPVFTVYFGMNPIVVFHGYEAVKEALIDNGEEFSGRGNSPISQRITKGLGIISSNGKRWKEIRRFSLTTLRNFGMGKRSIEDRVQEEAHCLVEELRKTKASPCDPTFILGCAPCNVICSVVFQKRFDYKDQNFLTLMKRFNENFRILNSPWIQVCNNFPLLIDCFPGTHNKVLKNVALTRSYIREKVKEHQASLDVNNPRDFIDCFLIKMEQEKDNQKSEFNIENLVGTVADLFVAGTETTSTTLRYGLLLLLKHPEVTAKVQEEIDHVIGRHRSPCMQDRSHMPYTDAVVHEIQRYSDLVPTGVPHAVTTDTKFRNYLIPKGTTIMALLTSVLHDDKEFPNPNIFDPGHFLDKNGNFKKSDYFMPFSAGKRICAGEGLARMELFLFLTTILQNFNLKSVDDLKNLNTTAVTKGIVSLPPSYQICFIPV
Described as above. Conditions: 50 µM substrate, 1 pmole P450, result in words.

The target of series [1] is T6, QuantiLum Luciferase (Photinus pyralis, UniProt P08659).
T6 construct: purchased Promega Corporation E170
The experiment in a line: ATP titration of firefly luciferase reactions with luciferin and fluoroluciferins. Type of series: biochemical. Conditions: result in words. The protocol: All compounds except 5'-fluoroluciferin and DTT were purchased from Sigma Chemical. To some of this reagent 5 mM ATP (Amersham/Invitrogen) was added, then serially diluted by half-logs to 0.05 mM. Reactions were initiated by adding equal volumes (0.1 ml) of reagent and DMEM medium (Gibco/Invitrogen) containing 0.1% Prionex® (Pentapharm) and 1.4 x 10-5 mg/ml QuantiLum™ Luciferase (Promega Corporation).
For ATP titrations for 7'-fluoroluciferin, reagent was created containing 200 mM HEPES, 200 mM PIPES, 1 mM CDTA, 0.5% Tergitol NP-9, 0.03% Benzyl dodecyldimethyl ammonium bromide, 30 mM thiourea, 10 mM magnesium sulfate, and 0.15 mM 7'-fluoroluciferin. This solution was separated into 3 parts and pH of the reagents were 7.4, 7.2 and 6.7. To some of this reagent, 10 mM ATP (Amersham/Invitrogen) was added. The ATP was serially diluted by quarter-logs from 10 mM to 0.32 mM.
Reactions were initiated by adding equal volumes (0.03 ml) of reagent and DMEM medium (Gibco/Invitrogen) containing 0.1% Prionex® (Pentapharm) and 1.4 x 10-5 mg/ml QuantiLum™ Luciferase (Promega Corporation).
Luminescence was measured for 0.5 seconds per well using Berthold Orion luminometer.

Series [2] addresses T6, QuantiLum Luciferase. Put plainly: Emission spectra of luciferase reactions with luciferin, 5'-fluoroluciferin, 7'-fluoroluciferin. Type of series: biochemical, firefly. The following applies: reagent pH 7.4. The protocol: All compounds except fluoroluciferin and ATP were purchased from Sigma Chemical. ATP was purchased from Amersham/Invitrogen.
Spectra were measured using 0.5s integration with 1 nm increments on a Spex Fluorolog.

Series [3] deals with T6, QuantiLum Luciferase. Put plainly: pH dependence of firefly luciferase luminescence with luciferin or 5'-fluoroluciferin. The series is classed as biochemical. Conditions: for Absolute Luminescence: 630 µM substrate. The protocol: Aliquots of these solutions were then placed into tubes and buffers were added to 80 mM.
Luminescent reactions were initiated by combining 100 µl of the luciferase-containing solution and 100 µl of the luciferase detection reagents. Luminescence was integrated over 1 second per sample using the Veritas plate luminometer (Turner BioSystems). N=3 for each result.
The average luminescence measured for each set of samples is listed in Table 50 (relative standard deviation ≤ 4.0%). […]

Series [4] concerns panel of recombinant human P450s. Put plainly: Two-step luminescent P450 screen of luciferin derivatives, whole panel incl. HLM. The series is classed as biochemical. The following applies: 50 µM substrate; result in words. The protocol: In addition, it was also of interest to identify substrates with improved selectivity for single P450 enzymes. […] Derivatives useful as P450 substrates may be employed in assays to detect inhibitors for particular P450 enzymes (see Figures 17-18).
as §1, §2

A further series addresses CYP3A7 (Homo sapiens, UniProt P24462). Put plainly: Two-step luminescent P450 screen of luciferin derivatives. Conditions: result in words.
For the next series, the system named is porcine esterase. The experiment in a line: Two-step luminescent carboxylesterase assay with D-luciferin esters. The series is classed as biochemical. The following applies: result in words. The text has this:
D-luciferin esters were substrates for carboxylesterases in a two step luminescent assay format similar to that used for P450s. […] Though signals varied between P450 preparations no P450 preparation was much brighter than the control. It seems likely then that the signals were not due to P450 activity in the preparations hut rather, variable amounts of carboxyl esterase activities. Methyl, ethyl and picolinyl esters of D-luciferin were also characterized as substrates for a purified preparation of porcine esterase without any p450. In this format each ester linked group was cleaved by the esterase to yield D-luciferin that in turn reacted with luciferase to make light.

T6 sequence (P08659 whole entry): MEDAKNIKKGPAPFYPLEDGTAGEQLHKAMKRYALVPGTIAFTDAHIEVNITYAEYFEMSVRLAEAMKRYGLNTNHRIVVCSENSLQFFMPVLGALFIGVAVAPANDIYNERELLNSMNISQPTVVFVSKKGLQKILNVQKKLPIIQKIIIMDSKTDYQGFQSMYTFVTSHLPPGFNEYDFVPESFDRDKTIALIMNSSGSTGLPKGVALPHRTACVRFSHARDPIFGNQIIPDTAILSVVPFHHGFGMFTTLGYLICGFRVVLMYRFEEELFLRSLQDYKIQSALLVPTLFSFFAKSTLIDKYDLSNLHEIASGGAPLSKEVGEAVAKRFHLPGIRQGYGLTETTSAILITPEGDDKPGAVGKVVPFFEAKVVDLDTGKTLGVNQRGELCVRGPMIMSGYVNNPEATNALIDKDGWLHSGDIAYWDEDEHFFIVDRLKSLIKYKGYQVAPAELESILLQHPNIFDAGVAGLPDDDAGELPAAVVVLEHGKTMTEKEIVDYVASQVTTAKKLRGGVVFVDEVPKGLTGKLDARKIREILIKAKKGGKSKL
Chain of CYP3A7 (P24462 whole entry): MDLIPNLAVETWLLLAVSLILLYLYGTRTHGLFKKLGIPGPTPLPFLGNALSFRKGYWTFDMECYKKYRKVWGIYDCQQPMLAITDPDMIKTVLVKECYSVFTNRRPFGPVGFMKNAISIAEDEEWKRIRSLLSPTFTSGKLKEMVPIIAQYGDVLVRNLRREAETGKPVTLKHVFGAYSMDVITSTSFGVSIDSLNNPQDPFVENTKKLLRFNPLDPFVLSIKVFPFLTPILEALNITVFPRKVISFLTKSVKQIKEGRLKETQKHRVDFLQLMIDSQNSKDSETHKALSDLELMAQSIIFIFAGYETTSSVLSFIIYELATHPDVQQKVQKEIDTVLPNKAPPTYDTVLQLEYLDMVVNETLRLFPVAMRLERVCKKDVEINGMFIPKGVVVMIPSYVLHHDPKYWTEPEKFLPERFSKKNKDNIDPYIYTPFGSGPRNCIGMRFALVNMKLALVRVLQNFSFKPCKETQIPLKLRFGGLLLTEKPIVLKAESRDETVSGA
T2 sequence (P11712 whole entry): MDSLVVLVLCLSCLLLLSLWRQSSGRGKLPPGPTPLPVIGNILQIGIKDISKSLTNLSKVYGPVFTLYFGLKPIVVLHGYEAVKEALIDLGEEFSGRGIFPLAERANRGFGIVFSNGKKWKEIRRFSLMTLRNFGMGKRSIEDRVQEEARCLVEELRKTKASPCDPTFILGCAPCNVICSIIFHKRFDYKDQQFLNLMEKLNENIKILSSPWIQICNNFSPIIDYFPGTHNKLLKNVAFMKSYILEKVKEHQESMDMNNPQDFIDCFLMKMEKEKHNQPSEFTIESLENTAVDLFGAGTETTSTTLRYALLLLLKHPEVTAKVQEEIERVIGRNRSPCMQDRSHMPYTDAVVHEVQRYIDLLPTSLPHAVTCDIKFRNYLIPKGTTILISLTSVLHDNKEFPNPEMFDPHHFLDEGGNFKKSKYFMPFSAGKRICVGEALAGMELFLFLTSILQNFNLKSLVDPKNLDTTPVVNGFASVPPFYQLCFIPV

Regarding `COc1cc(C)c2nc(C3=NC(C(=O)O)CS3)sc2c1` (centres unmarked) [4-methyl-6-(O-methyl)-luciferin], the “P450 activity / selectivity with the derivative as substrate” value (shortened to “P450 activity / selectivity”) at CYP4A11 is listed as “did not react”; at CYP2C9, “enhanced selectivity”; at CYP2C9 (listed as line 11), “preferred substrate”; at CYP1A2 it was “enhanced selectivity”; on CYP1A2 (listed as line 11), “preferred substrate”; on CYP1A1, “preferred substrate”. Also, the “P450 activity / selectivity” value on CYP2C8 is given as “enhanced selectivity”; at CYP2C8 (listed as line 11), “preferred substrate”.

For `O=C(O)[C@H]1CSC(c2nc3cc(F)c(O)cc3s2)=N1` [5'-fluoroluciferin], the “ATP requirement of the luciferase reaction compared with luciferin” value at QuantiLum Luciferase [1] is recorded as “saturated with ATP at a higher concentration”. For the same compound, the “λmax of luminescence, blue-shifted from regular luciferin” value at QuantiLum Luciferase [2] is “approximately 25 nm”; at QuantiLum Luciferase [2] (listed as 5' fluoroluciferin) it was “about 10 nm”. Moreover, the “Absolute Luminescence” value at QuantiLum Luciferase [3] (pH 6.900, MOPS) was 272,127 RLU; at QuantiLum Luciferase [3] (pH 7.133, MOPS), 325,337 RLU; on QuantiLum Luciferase [3] (pH 7.296, MOPS), 331,515 RLU; at QuantiLum Luciferase [3] (pH 7.303, HEPES), 323,456 RLU; at QuantiLum Luciferase [3] (pH 7.499, MOPS), 334,288 RLU; on QuantiLum Luciferase [3] (pH 7.521, HEPES), 360,308 RLU. Also, the “Absolute Luminescence” value was 351,411 RLU at QuantiLum Luciferase [3] (pH 7.673, Tricine); 378,927 RLU at QuantiLum Luciferase [3] (pH 7.720, HEPES); 357,883 RLU at QuantiLum Luciferase [3] (pH 7.883, Tricine); 377,498 RLU at QuantiLum Luciferase [3] (pH 7.892, HEPES); 357,041 RLU on QuantiLum Luciferase [3] (pH 8.100, Tricine); 317,030 RLU on QuantiLum Luciferase [3] (pH 8.327, Tricine). In addition, the “change of luminescence over the pH range tested” value at QuantiLum Luciferase [3] (pH 6.9 to 8.3) was “about 40%”. Also, the “decrease of luminescence when buffer changed from HEPES to tricine” value on QuantiLum Luciferase [3] (pH 7.89 reagent) is 6%.

Regarding `COc1cc2nc(C3=NC(C(=O)O)CS3)sc2cc1OC` (centres unmarked) [5,6-dimethoxyluciferin], the “P450 activity / selectivity” value on CYP4A11 and on CYP2C9 was “preferred substrate” in each case. Further, the “luminescent signals with the panel of P450 enzymes” value in series [4] is reported as “did not produce large luminescent signals with any P450”.

With `O=C(O)[C@H]1CSC(c2nc3ccc(OCSc4ccc(Cl)cc4)cc3s2)=N1` [6'-p-chlorophenylthiol-methoxy-luciferin, 6-(4-Chloro-phenylthiomethoxy) luciferin], the “P450 activity / selectivity” value at CYP3A7 is listed as “showed selectivity”.

For `Nc1ccc(Oc2ccc3nc(C4=N[C@@H](C(=O)O)CS4)ccc3c2)cc1` [6(p-aminophenyloxy)-quinolylluciferin], the “luminescent signals with the panel of P450 enzymes” value in [4] is given as “did not produce large luminescent signals with any P450”.

For the compound `CCOC(=O)[C@H]1CSC(c2nc3ccc(O)cc3s2)=N1` [D-luciferin ethyl ester], the “substrate for carboxylesterases in a two step luminescent assay format” value (“substrate for carboxylesterases” for short) in the series with porcine esterase is recorded as “effective”.

In the case of `COC(=O)[C@H]1CSC(c2nc3ccc(O)cc3s2)=N1` [D-luciferin methyl ester], in the series with porcine esterase, the “substrate for carboxylesterases” value is “effective”.

On to `O=C(OCc1cccnc1)[C@H]1CSC(c2nc3ccc(O)cc3s2)=N1` [D-luciferin picolinyl ester, m-picolinyl ester of luciferin], for which, in the series on porcine esterase, the “substrate for carboxylesterases” value is reported as “effective”.

Regarding `O=C(O)[C@H]1CSC(c2nc3ccc(OCc4cccnc4)cc3s2)=N1` [luciferin 6' 3-picolinyl ether, reference compound], the “P450 activity / selectivity” value at CYP3A7 is given as “cross reacted significantly”.

As for bis-luciferin-xylyldiether, the “P450 activity / selectivity” value at CYP3A7 is “selective”.
